Assay [1] addresses Serine/threonine-protein kinase/endoribonuclease IRE1 (Homo sapiens, UniProt O75460).
Assay [2] concerns the target Mitogen-activated protein kinase kinase kinase 20 (Homo sapiens, UniProt Q9NYL2).
Assay [3] has as its target T1, Ferrochelatase, mitochondrial (Homo sapiens, UniProt P22830).
T1 sequence (P22830 whole entry): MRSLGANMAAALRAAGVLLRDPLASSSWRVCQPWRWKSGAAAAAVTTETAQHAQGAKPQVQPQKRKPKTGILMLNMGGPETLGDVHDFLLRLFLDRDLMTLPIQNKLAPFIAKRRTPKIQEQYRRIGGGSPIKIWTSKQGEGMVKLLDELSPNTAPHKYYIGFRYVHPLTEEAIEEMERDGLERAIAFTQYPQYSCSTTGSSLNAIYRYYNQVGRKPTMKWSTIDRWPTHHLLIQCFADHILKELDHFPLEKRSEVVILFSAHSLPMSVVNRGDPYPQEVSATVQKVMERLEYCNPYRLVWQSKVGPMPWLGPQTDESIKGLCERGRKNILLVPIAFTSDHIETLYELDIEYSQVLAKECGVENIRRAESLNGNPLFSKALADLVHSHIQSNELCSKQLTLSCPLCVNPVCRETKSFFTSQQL

For assay [4], the target named is Myosin-14 (Homo sapiens, UniProt Q7Z406).
Assay [5] deals with T2, Mitogen-activated protein kinase kinase kinase 6 (Homo sapiens, UniProt O95382).
T2 sequence (O95382 whole entry): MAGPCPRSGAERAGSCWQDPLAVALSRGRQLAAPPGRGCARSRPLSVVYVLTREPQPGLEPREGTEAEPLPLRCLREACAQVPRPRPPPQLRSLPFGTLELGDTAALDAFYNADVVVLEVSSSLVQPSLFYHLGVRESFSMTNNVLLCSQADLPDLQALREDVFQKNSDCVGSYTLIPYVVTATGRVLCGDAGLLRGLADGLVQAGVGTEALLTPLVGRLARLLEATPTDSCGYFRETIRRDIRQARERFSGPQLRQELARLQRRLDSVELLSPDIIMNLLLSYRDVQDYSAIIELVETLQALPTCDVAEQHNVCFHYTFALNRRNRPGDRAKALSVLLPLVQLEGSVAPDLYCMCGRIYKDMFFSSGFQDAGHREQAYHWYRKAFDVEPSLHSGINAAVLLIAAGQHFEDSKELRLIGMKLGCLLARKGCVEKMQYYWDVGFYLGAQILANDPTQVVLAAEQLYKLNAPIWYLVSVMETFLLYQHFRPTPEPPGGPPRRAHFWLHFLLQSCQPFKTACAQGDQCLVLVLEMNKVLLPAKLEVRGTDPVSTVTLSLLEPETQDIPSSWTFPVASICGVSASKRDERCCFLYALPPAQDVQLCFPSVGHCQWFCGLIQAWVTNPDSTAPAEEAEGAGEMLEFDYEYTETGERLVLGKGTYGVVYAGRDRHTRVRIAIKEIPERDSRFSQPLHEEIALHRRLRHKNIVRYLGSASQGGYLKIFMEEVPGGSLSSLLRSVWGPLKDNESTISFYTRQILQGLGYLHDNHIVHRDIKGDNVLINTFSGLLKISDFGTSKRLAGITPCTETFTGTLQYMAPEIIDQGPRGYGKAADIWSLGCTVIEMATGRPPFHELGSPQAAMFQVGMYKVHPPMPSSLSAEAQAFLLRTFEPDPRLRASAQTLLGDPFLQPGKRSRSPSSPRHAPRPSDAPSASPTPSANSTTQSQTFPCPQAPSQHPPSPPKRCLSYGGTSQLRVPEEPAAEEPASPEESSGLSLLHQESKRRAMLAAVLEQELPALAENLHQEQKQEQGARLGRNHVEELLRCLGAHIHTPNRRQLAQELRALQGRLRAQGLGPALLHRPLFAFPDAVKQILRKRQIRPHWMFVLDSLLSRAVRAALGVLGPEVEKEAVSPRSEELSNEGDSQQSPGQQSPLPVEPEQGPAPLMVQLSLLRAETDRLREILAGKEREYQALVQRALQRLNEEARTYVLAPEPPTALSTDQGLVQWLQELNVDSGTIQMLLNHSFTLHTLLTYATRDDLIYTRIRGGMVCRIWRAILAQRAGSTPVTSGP

Assay [6] has as its target Calcium/calmodulin-dependent protein kinase type II subunit gamma (Homo sapiens, UniProt Q13555).
For assay [7], the target named is T3, Glycine--tRNA ligase (Homo sapiens, UniProt P41250).
T3 sequence (P41250 whole entry): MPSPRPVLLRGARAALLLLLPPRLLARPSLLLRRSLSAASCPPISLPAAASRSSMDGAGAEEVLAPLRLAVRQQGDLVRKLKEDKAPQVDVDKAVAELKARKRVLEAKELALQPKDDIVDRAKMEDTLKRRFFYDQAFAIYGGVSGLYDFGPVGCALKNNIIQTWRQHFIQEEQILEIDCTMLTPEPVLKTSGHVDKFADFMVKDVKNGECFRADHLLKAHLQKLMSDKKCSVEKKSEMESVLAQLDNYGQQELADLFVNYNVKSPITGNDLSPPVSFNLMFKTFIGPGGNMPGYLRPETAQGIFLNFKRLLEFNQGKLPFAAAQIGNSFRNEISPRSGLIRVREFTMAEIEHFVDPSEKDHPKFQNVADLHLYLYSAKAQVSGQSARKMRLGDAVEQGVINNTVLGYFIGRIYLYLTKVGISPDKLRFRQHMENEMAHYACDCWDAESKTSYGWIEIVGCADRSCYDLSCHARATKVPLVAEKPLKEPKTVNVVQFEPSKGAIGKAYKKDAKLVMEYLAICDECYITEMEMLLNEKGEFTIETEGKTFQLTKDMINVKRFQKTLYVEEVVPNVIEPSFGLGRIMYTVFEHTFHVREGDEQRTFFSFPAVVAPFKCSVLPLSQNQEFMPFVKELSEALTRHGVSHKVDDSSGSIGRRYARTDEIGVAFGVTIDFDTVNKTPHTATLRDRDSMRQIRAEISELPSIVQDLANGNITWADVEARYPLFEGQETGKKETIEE

For assay [8], the target named is TRAF2 and NCK-interacting protein kinase (Homo sapiens, UniProt Q9UKE5).

Molecules are shown by their SMILES. Active and inactive are the calls of the source. Rule as the data show it, for most assays here: actives have a measured Kd and inactives only a lower limit.
Also: in the data inactive means no Kd found up to 30 µM.

Mitogen-activated protein kinase kinase kinase 20, sequence (Q9NYL2 whole entry): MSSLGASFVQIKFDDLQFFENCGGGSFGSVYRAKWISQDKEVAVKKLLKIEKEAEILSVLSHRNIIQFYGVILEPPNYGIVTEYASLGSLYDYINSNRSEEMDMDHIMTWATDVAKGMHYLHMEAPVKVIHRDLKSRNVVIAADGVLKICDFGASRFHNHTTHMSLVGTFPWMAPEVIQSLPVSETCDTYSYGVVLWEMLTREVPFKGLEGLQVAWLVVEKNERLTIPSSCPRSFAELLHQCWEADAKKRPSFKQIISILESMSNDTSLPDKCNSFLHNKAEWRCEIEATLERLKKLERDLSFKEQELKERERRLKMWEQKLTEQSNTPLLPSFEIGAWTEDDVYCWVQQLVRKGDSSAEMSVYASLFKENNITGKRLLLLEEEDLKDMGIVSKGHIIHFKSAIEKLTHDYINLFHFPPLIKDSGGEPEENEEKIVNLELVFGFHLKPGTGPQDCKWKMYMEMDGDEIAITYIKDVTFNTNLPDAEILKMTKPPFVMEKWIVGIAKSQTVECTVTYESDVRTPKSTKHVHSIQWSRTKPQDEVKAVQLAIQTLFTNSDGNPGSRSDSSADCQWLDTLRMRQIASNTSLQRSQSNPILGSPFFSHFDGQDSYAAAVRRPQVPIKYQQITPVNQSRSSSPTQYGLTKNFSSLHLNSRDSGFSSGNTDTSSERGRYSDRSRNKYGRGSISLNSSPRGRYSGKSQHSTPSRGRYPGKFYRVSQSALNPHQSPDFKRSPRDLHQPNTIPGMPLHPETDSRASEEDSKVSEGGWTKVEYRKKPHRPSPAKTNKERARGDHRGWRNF
Myosin-14, sequence (Q7Z406 whole entry): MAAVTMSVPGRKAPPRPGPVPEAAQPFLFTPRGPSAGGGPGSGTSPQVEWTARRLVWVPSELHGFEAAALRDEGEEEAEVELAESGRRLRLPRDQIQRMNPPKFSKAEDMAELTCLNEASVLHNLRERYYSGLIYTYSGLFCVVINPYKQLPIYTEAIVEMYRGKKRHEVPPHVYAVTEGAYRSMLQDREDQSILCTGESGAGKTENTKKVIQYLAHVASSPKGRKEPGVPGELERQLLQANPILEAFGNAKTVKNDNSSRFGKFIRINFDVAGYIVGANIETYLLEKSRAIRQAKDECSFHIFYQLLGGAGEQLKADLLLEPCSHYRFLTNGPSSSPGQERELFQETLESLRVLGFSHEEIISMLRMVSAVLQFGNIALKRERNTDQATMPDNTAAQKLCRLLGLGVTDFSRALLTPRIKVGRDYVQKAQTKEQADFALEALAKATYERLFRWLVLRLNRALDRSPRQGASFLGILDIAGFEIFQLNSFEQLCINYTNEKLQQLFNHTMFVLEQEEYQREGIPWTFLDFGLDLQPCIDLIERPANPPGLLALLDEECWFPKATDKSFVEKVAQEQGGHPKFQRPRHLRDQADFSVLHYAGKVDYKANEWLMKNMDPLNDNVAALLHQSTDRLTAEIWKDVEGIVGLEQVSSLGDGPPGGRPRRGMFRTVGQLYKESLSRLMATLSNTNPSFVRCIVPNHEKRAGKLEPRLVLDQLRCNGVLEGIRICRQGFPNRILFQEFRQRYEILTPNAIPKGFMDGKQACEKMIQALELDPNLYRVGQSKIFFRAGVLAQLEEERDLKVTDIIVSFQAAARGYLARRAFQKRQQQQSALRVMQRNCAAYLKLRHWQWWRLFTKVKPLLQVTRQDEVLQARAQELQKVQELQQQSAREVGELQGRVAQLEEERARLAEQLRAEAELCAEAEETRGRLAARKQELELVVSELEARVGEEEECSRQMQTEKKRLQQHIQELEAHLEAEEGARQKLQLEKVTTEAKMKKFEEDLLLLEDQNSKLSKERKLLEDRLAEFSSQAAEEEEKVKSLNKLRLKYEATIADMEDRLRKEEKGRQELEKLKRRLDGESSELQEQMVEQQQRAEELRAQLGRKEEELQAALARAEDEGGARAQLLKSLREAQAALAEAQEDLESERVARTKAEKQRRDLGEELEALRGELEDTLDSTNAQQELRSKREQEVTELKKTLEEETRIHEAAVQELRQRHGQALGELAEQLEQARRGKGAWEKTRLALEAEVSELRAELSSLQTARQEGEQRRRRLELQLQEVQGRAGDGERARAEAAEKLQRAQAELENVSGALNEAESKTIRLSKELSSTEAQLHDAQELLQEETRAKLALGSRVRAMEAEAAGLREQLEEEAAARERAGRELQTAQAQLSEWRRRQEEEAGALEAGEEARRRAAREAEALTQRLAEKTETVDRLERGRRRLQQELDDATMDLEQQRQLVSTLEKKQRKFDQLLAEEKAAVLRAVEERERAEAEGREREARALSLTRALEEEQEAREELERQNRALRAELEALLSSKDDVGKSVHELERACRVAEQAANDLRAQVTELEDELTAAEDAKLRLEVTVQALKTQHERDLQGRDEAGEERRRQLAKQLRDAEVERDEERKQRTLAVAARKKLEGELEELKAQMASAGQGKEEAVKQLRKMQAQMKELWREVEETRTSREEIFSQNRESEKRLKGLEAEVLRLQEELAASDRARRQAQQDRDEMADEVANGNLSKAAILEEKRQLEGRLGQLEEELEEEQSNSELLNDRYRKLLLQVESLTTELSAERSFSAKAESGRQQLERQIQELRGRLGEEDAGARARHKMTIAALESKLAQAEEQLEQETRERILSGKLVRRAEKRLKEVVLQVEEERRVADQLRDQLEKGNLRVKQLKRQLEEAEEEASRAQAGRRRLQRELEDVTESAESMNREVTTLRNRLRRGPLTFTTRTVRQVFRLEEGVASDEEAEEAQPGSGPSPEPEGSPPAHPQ
Calcium/calmodulin-dependent protein kinase type II subunit gamma, sequence (Q13555 whole entry): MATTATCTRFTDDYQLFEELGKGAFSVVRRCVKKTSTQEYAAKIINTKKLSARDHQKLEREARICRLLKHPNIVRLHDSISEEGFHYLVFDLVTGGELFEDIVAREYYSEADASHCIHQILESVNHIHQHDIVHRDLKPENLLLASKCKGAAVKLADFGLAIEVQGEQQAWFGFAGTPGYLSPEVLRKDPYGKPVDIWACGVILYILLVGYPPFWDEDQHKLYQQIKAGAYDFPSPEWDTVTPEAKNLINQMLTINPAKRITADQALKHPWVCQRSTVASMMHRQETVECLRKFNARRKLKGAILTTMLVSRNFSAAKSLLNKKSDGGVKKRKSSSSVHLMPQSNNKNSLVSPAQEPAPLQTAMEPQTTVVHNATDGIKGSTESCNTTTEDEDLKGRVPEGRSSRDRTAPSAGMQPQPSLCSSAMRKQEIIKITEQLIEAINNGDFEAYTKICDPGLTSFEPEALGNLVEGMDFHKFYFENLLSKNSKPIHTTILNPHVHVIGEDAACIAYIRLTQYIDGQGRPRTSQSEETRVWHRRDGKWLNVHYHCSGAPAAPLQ
TRAF2 and NCK-interacting protein kinase, sequence (Q9UKE5 whole entry): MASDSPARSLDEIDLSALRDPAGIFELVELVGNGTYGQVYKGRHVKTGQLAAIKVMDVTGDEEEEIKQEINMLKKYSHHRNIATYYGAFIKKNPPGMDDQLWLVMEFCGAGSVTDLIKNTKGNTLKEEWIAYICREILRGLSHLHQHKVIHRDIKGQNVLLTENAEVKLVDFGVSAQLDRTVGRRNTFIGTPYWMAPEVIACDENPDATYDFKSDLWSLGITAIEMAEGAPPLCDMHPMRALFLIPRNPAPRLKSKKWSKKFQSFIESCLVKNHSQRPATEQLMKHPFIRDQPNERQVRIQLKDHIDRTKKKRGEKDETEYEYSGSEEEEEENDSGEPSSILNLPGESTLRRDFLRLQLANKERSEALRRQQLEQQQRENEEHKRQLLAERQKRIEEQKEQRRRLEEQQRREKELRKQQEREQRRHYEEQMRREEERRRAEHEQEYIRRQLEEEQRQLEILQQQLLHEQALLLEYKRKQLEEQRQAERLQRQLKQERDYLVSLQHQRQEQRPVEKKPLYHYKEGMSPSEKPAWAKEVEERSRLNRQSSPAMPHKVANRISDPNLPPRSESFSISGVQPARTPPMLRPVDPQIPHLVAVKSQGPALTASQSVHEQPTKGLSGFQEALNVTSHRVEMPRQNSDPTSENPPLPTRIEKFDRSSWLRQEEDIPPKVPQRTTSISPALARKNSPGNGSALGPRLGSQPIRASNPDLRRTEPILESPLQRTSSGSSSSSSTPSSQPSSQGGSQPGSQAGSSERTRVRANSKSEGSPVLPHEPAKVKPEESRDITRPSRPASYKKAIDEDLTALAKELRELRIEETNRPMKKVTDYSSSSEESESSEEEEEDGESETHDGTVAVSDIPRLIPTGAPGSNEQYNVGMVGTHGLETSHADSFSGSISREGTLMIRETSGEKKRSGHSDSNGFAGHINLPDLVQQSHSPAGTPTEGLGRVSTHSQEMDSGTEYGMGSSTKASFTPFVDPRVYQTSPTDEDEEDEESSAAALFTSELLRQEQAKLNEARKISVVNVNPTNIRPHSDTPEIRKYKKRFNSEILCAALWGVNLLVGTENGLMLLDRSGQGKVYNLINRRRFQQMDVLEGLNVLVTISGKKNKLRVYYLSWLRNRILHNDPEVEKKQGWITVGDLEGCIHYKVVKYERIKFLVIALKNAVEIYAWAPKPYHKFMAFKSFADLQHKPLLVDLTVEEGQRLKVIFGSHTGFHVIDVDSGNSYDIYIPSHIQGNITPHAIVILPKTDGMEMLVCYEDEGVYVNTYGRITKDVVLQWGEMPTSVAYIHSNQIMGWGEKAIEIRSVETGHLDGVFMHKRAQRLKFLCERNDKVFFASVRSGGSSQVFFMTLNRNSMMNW

For the molecule `C[C@@H](c1ccc2nccn2c1)n1nnc2ncc(-c3cnn(C)c3)nc21` [SAVOLITINIB], the Kd in assay [1], in assay [2], in assay [3], in assay [4], in assay [5] and in assay [6] was > 30 µM (inactive) in each case. The Kd in assay [7] and in assay [8] was > 30 µM (inactive) each time.
As for `N[C@@H]1CCCN(c2c(/C=C3\SC(=O)NC3=O)cccc2-c2ccccc2)C1`, the Kd in assay [1], in assay [2], in assay [3], in assay [4], in assay [5] and in assay [6] was > 30 µM (inactive) throughout. Also, the Kd in assay [7] and in assay [8] was > 30 µM (inactive) in each case.
For the molecule `Cc1cc([C@@H](C)Nc2ccccc2C(=O)O)c2nc(N3CCOCC3)cc(=O)n2c1` [AZD-6482], the Kd in assay [1], in assay [2], in assay [3], in assay [4], in assay [5] and in assay [6] was > 30 µM (inactive) each time. Besides, the Kd in assay [7] and in assay [8] was > 30 µM (inactive) throughout.
Turning to `CN1CCC(CNc2ccc3ncc(-c4cccc(OC(F)(F)F)c4)n3n2)CC1` [SGI-1776], the Kd in assay [1], in assay [2], in assay [3], in assay [4], in assay [5] and in assay [6] was > 30 µM (inactive) in each case. Moreover, the Kd in assay [7] and in assay [8] was > 30 µM (inactive) throughout.
As to `CC(C)Nc1cc(-c2c[nH]c(C(=O)N[C@H](CO)c3cccc(Cl)c3)c2)c(Cl)cn1` [ULIXERTINIB], the Kd in assay [1], in assay [2], in assay [3], in assay [4], in assay [5] and in assay [6] was > 30 µM (inactive) throughout. Moreover, the Kd in assay [7] and in assay [8] was > 30 µM (inactive) in each case.
Take `O=c1sn(-c2cccc3ccccc23)c(=O)n1Cc1ccccc1` [TIDEGLUSIB]: the Kd in assay [1], in assay [2], in assay [3], in assay [4], in assay [5] and in assay [6] was > 30 µM (inactive) throughout. Moreover, the Kd in assay [7] and in assay [8] was > 30 µM (inactive) in each case.
With `CNC(=O)c1cc(Oc2ccc(NC(=O)Nc3ccc(Cl)c(C(F)(F)F)c3)c(F)c2)ccn1` [REGORAFENIB], the Kd – broadly, the constant that tells how readily two partners part at equilibrium – was > 30 µM (inactive) in assay [1]; 0.274 µM (active) in assay [2]; > 30 µM (inactive) in assay [3]; > 30 µM (inactive) in assay [4]; > 30 µM (inactive) in assay [5]; > 30 µM (inactive) in assay [6]. Moreover, the Kd in assay [7] and in assay [8] was > 30 µM (inactive) in each case.
Turning to `Cc1ccc(-n2nc(C(C)(C)C)cc2NC(=O)NCc2cc(F)ccc2Oc2ccc3c(cnn3CCO)c2)cc1` [PEXMETINIB], the Kd in assay [1] was > 30 µM (inactive); in assay [2], 1.25 µM (active); in assay [3] it was > 30 µM (inactive); in assay [4], > 30 µM (inactive); in assay [5] it was > 30 µM (inactive); in assay [6], > 30 µM (inactive). Also, the Kd in assay [7] and in assay [8] was > 30 µM (inactive) throughout.
`CCN1CCN(Cc2ccc(-c3cc4c(N[C@H](C)c5ccccc5)ncnc4[nH]3)cc2)CC1` [AEE-788]: the Kd in assay [1] was > 30 µM (inactive); in assay [2], 13.6 µM (active); in assay [3], > 30 µM (inactive); in assay [4] it was > 30 µM (inactive); in assay [5], > 30 µM (inactive); in assay [6] it was > 30 µM (inactive). Besides, the Kd in assay [7] and in assay [8] was > 30 µM (inactive) throughout.
Take `Cc1ccc(NC(=O)c2ccc(CN3CC[C@H](N(C)C)C3)c(C(F)(F)F)c2)cc1Nc1nccc(-c2cncnc2)n1` [BAFETINIB]: the Kd in assay [1] was > 30 µM (inactive); in assay [2] it was 0.065 µM (active); in assay [3], > 30 µM (inactive); in assay [4] it was > 30 µM (inactive); in assay [5] it was > 30 µM (inactive); in assay [6] it was > 30 µM (inactive). Also, the Kd in assay [7] and in assay [8] was > 30 µM (inactive) each time.
On to `COCCNCc1ccc(-c2cc3nccc(Oc4ccc(NC(=S)NC(=O)Cc5ccc(F)cc5)cc4F)c3s2)nc1` [GLESATINIB], for which the Kd in assay [1], in assay [2], in assay [3], in assay [4], in assay [5] and in assay [6] was > 30 µM (inactive) throughout. Also, the Kd in assay [7] and in assay [8] was > 30 µM (inactive) in each case.
On to `Cn1cc(-c2ccc3nnc(C(F)(F)c4ccc5ncccc5c4)n3n2)cn1` [JNJ-38877605], for which the Kd in assay [1], in assay [2], in assay [3], in assay [4], in assay [5] and in assay [6] was > 30 µM (inactive) in each case. The Kd in assay [7] and in assay [8] was > 30 µM (inactive) throughout.
Regarding `CN1CC[C@@H](c2c(O)cc(O)c3c(=O)cc(-c4ccccc4Cl)oc23)[C@@H]1CO`, the Kd in assay [1] is > 30 µM (inactive); in assay [2] it was > 30 µM (inactive); in assay [3], > 30 µM (inactive); in assay [4], > 30 µM (inactive); in assay [5], > 30 µM (inactive); in assay [6], 1.34 µM (active). For the same molecule, the Kd in assay [7] and in assay [8] was > 30 µM (inactive) in each case.

Source of the values: ChEMBL document CHEMBL3991601, “The target landscape of clinical kinase drugs” (Science, 2017).
